# Residues, ends and D or L forms follow the SMILES beside them.
# What was measured:
# Format in all cases: cell-based
# human NMUR1 receptor = target: T1, human NMUR1 receptor (Homo sapiens, UniProt Q9HB89); experiment: IP1 Gq HTRF assay, activation of human NMUR1 in buffer; conditions: CHO-K1 cells expressing human NMUR1, stimulation buffer with 0.1% BSA; read-out: EC50 (hNMUR1) buffer
# T1 construct: expressed in transfected cells; host or cells: CHO-K1
# T1 sequence (Q9HB89 1-426): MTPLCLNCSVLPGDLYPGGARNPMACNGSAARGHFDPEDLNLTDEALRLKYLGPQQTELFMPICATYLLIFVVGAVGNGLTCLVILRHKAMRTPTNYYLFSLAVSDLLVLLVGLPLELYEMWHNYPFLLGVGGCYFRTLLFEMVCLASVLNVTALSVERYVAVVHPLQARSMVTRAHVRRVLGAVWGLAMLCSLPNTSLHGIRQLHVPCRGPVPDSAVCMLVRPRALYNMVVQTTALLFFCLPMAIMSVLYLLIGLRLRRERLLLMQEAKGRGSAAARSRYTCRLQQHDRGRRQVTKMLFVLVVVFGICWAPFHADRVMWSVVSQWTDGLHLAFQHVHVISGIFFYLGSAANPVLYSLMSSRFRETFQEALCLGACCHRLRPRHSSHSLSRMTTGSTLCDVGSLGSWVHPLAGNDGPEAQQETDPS
# From the text: (§1) Example 3: IP1 Gq HTRF Assay Activation of Human NMUR2 or Human NMUR1 in Buffer Application of the Homogenous Time Resolved Fluorescence (HTRF) technology optimized for Gq coupled receptors has been described in detail in the Cisbio IP-One Gq kit manual. In brief, a FRET signal (FRET: fluorescence resonance energy transfer) is generated between the donor label of an IP-One antibody (anti-IP1-Tb) and the acceptor label of a tagged IP-One (IP1-d2). Agonism of a Gq coupled receptor increases intracellular IP-One, which competes with labeled IP-One and leads to a reduction of the FRET signal. Frozen stocks of CHO-K1 cells stably expressing the human NMUR1 or NMUR2 receptor were thawed and 5000 cells were seeded in culture medium (HAM'S F12, 10% FCS) into each well of a 384-well assay plate. After seeding, cells were incubated for 24 h in a humidified incubator at 37° C. and 5% CO2. Next, cells were washed once with 50 μL of wash buffer (20 mM Hepes, 1×HBSS, pH 7.4), followed by addition of either 10 μL of stimulation buffer (20 mM Hepes, 1×HBSS, 50 mM LiCl, 0.1% BSA, pH 7.4). Peptide agonists to be tested were dissolved in 100% DMSO and pre-diluted in stimulation buffer at a suitable concentration range for an 8 pt dose-response curve. 5 μL of peptide pre-dilution were then added to each well, followed by another 5 μL of stimulation buffer to give a final concentration of 1% DMSO. Samples were subsequently incubated for 1 hour in a humidified incubator at 37° C. After addition of 5 μL each of IP1-d2 and anti-IP1-Tb, samples were incubated for another 1 hour at room temperature and FRET signals (ratio 665 nm/620 nm) were measured. EC50 values were calculated by nonlinear regression using a 4-parameter sigmoidal curve fit.
# human NMUR2 receptor [1] = target: T2, human NMUR2 receptor (Homo sapiens, UniProt Q9GZQ4); experiment: IP1 Gq HTRF assay, activation of human NMUR2 in buffer; design: expressed in transfected cells; host or cells: CHO-K1; conditions: CHO-K1 cells expressing human NMUR2, stimulation buffer with 0.1% BSA; read-out: EC50 (hNMUR2) buffer
# T2 sequence (Q9GZQ4 whole entry): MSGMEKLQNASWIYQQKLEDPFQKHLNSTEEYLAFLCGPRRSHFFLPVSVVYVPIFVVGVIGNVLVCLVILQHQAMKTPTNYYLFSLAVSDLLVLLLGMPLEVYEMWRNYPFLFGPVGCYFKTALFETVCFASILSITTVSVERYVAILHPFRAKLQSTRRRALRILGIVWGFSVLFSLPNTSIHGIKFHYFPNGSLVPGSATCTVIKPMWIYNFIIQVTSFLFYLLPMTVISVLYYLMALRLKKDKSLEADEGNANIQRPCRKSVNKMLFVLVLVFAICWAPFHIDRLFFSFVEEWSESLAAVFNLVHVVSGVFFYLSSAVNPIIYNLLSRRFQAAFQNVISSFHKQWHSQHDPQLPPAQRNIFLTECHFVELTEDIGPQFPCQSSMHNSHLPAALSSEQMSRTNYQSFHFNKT
# From the text: as §1
# human NMUR2 receptor [2] = target: T2, human NMUR2 receptor; experiment: IP1 Gq HTRF assay, activation of human NMUR2 in human plasma; design: expressed in transfected cells; host or cells: CHO-K1; conditions: CHO-K1 cells expressing human NMUR2, 100% human plasma; read-out: EC50 (hNMUR2) human plasma
# From the text: Example 4: IP1 Gq HTRF Assay Activation of Human NMUR2 in Human Plasma Application of the Homogenous Time Resolved Fluorescence (HTRF) technology optimized for Gq coupled receptors has been described in detail in the Cisbio IP-One Gq kit manual. In brief, a FRET signal is generated between the donor label of an IP-One antibody (anti-IP1-Tb) and the acceptor label of a tagged IP-One (IP1-d2). Agonism of a Gq coupled receptor increases intracellular IP-One, which competes with labeled IP-One and leads to a reduction of the FRET signal. Frozen stocks of CHO-K1 cells stably expressing the human NMUR1 receptor or human NMUR2 receptor were thawed and 5000 cells were seeded in culture medium (HAM'S F12, 10% FCS) into each well of a 384-well assay plate. After seeding, cells were incubated for 24 h in a humidified incubator at 37° C. and 5% CO2. Next, cells were washed once with […] of wash buffer (20 mM Hepes, 1×HBSS, pH 7.4), followed by addition of […] (100% human plasma, 50 mM LiCl). Peptide agonists to be tested were dissolved in 100% DMSO and pre-diluted in plasma at a suitable concentration range for an 8 pt dose-response curve. 5 μL of peptide pre-dilution were then added to each well, followed by another 5 μL of plasma to give a final concentration of 1% DMSO. Samples were subsequently incubated for 1 hour in a humidified incubator at 37° C. The plasma solution was replaced by 20 μL of stimulation buffer. After addition of 5 μL each of IP1-d2 and anti-IP1-Tb, samples were incubated for another 1 hour at room temperature and FRET signals (ratio 665 nm/620 nm) were measured. EC50 values were calculated by nonlinear regression using a 4-parameter sigmoidal curve fit.
SMILES,EC50 (human NMUR1 receptor) [µM],EC50 (human NMUR2 receptor [1]) [µM],EC50 (human NMUR2 receptor [2]) [µM]
"CCCC[C@H](NC(=O)[C@H](CC(C)C)N(C)C(=O)[C@H](Cc1ccccc1)NC(=O)[C@H](Cc1ccc(O)cc1)NC(=O)CN1CCN(CCNC(=O)CN(C)C(=O)CN(C)C(=O)CN(C)C(=O)CN(C)C(=O)CN(C)C(=O)CN(C)C(=O)CN(C)C(=O)CN(C)C(=O)CN(C)C(=O)CN(C)C(=O)CN(C)C(=O)CN(C)C(=O)CN(C)C(=O)CN(C)C(=O)CN(C)C(=O)CC[C@H](NC(=O)CC[C@H](NC(=O)CC[C@H](NC(=O)CC[C@H](NC(=O)CCCCCCCCCCCCCCCCCCC(=O)O)C(=O)O)C(=O)O)C(=O)O)C(=O)O)CC1)C(=O)N[C@@H](CCCN)C(=O)N(C)[C@@H](C)C(=O)N[C@@H](CCCNC(=N)N)C(=O)NCC(N)=O [Compound 14, C20DA-gGlu4-Sar15-AEPipAc-Tyr-Phe-NMeLeu-Nle-Orn-NMeAla-Arg-Gly-NH2] (HELM PEPTIDE1{[O=C(O)CCCCCCCCCCCCCCCCCCC(=O)[*:2]].[gGlu].[gGlu].[gGlu].[gGlu].[Sar].[Sar].[Sar].[Sar].[Sar].[Sar].[Sar].[Sar].[Sar].[Sar].[Sar].[Sar].[Sar].[Sar].[Sar].[O=C(CN1CCN(CCN[*:1])CC1)[*:2]].Y.F.[meL].[Nle].[Orn].[meA].R.G.[am]}$$$$V2.0)",1.4,0.0029,0.0103
"CCCC[C@H](NC(=O)[C@H](CC(C)C)N(C)C(=O)[C@H](Cc1ccccc1)NC(=O)[C@H](Cc1ccc(O)cc1)NC(=O)CN1CCN(CCNC(=O)CN(C)C(=O)CN(C)C(=O)CN(C)C(=O)CN(C)C(=O)CN(C)C(=O)CN(C)C(=O)CN(C)C(=O)CN(C)C(=O)CN(C)C(=O)CN(C)C(=O)CN(C)C(=O)CN(C)C(=O)CN(C)C(=O)CN(C)C(=O)CN(C)C(=O)CC[C@H](NC(=O)CC[C@H](NC(=O)CC[C@H](NC(=O)CC[C@H](NC(=O)CCCCCCCCCCCCCCCCCCC(=O)O)C(=O)O)C(=O)O)C(=O)O)C(=O)O)CC1)C(=O)N[C@@H](CCN)C(=O)N(C)[C@@H](C)C(=O)N[C@@H](CCCNC(=N)N)C(=O)NCC(N)=O [Compound 16, C20DA-gGlu4-Sar15-AEPipAc-Tyr-Phe-NMeLeu-Nle-Dbu-NMeAla-Arg-Gly-NH2] (HELM PEPTIDE1{[O=C(O)CCCCCCCCCCCCCCCCCCC(=O)[*:2]].[gGlu].[gGlu].[gGlu].[gGlu].[Sar].[Sar].[Sar].[Sar].[Sar].[Sar].[Sar].[Sar].[Sar].[Sar].[Sar].[Sar].[Sar].[Sar].[Sar].[O=C(CN1CCN(CCN[*:1])CC1)[*:2]].Y.F.[meL].[Nle].[Dab].[meA].R.G.[am]}$$$$V2.0)",> 1,0.0033,0.011
"CCCC[C@H](NC(=O)[C@H](CC(C)C)N(C)C(=O)[C@H](Cc1ccccc1)NC(=O)[C@H](Cc1ccc(O)cc1)NC(=O)CN1CCN(CCNC(=O)CN(C)C(=O)CN(C)C(=O)CN(C)C(=O)CN(C)C(=O)CN(C)C(=O)CN(C)C(=O)CN(C)C(=O)CN(C)C(=O)CN(C)C(=O)CN(C)C(=O)CN(C)C(=O)CN(C)C(=O)CN(C)C(=O)CN(C)C(=O)CN(C)C(=O)CC[C@H](NC(=O)CC[C@H](NC(=O)CC[C@H](NC(=O)CC[C@H](NC(=O)CCCCCCCCCCCCCCCCCCC(=O)O)C(=O)O)C(=O)O)C(=O)O)C(=O)O)CC1)C(=O)N[C@@H](CCCCN)C(=O)N(C)[C@@H](C)C(=O)N[C@@H](CCCNC(=N)N)C(=O)NCC(N)=O [Compound 18, C20DA-gGlu4-Sar15-AEPipAc-Tyr-Phe-NMeLeu-Nle-Lys-NMeAla-Arg-Gly-NH2] (HELM PEPTIDE1{[O=C(O)CCCCCCCCCCCCCCCCCCC(=O)[*:2]].[gGlu].[gGlu].[gGlu].[gGlu].[Sar].[Sar].[Sar].[Sar].[Sar].[Sar].[Sar].[Sar].[Sar].[Sar].[Sar].[Sar].[Sar].[Sar].[Sar].[O=C(CN1CCN(CCN[*:1])CC1)[*:2]].Y.F.[meL].[Nle].K.[meA].R.G.[am]}$$$$V2.0)",> 1,0.007,0.0347
"CCCC[C@H](NC(=O)[C@H](CC(C)C)N(C)C(=O)[C@H](Cc1ccccc1)NC(=O)[C@H](Cc1ccc(O)cc1)NC(=O)CN1CCN(CCNC(=O)CN(C)C(=O)CN(C)C(=O)CN(C)C(=O)CN(C)C(=O)CN(C)C(=O)CN(C)C(=O)CN(C)C(=O)CN(C)C(=O)CN(C)C(=O)CN(C)C(=O)CN(C)C(=O)CN(C)C(=O)CC[C@H](NC(=O)CC[C@H](NC(=O)CC[C@H](NC(=O)CC[C@H](NC(=O)CCCCCCCCCCCCCCCCCCC(=O)O)C(=O)O)C(=O)O)C(=O)O)C(=O)O)CC1)C(=O)N[C@@H](CCCCN)C(=O)N(C)[C@@H](C)C(=O)N[C@@H](CCCNC(=N)N)C(=O)NCC(N)=O [Compound 19, C20DA-gGlu4-Sar12-AEPipAc-Tyr-Phe-NMeLeu-Nle-Lys-NMeAla-Arg-Gly-NH2]",1.4,0.0057,0.0366
"CCCC[C@H](NC(=O)[C@H](CC(C)C)N(C)C(=O)[C@H](Cc1ccccc1)NC(=O)[C@H](Cc1ccc(O)cc1)NC(=O)CN1CCN(CCNC(=O)CN(C)C(=O)CN(C)C(=O)CN(C)C(=O)CN(C)C(=O)CN(C)C(=O)CN(C)C(=O)CN(C)C(=O)CN(C)C(=O)CN(C)C(=O)CN(C)C(=O)CN(C)C(=O)CN(C)C(=O)CN(C)C(=O)CN(C)C(=O)CN(C)C(=O)CC[C@H](NC(=O)CC[C@H](NC(=O)CC[C@H](NC(=O)CCCCCCCCCCCCCCCCCCC(=O)O)C(=O)O)C(=O)O)C(=O)O)CC1)C(=O)N[C@@H](CCCN)C(=O)NCC(=O)N[C@@H](CCCNC(=N)N)C(=O)NCC(N)=O [Compound 29, C20DA-gGlu3-Sar15-AEPipAc-Tyr-Phe-NMeLeu-Nle-Orn-Gly-Arg-Gly-NH2] (HELM PEPTIDE1{[O=C(O)CCCCCCCCCCCCCCCCCCC(=O)[*:2]].[gGlu].[gGlu].[gGlu].[Sar].[Sar].[Sar].[Sar].[Sar].[Sar].[Sar].[Sar].[Sar].[Sar].[Sar].[Sar].[Sar].[Sar].[Sar].[O=C(CN1CCN(CCN[*:1])CC1)[*:2]].Y.F.[meL].[Nle].[Orn].G.R.G.[am]}$$$$V2.0)",> 1,0.052,0.535

# Reference: patent publication US20240279278A1, “NMU RECEPTOR 2 AGONISTS” (Boehringer Ingelheim International GmbH, priority 2023, published 2024)
